Reference: ChEMBL document CHEMBL3352489, “6-Hydroxyquinolinium salts differing in the length of alkyl side-chain: synthesis and antimicrobial activity” (Bioorg Med Chem Lett, 2014)

Experiments:
[1] = system: Staphylococcus aureus; experiment: microbe, parasite or virus in culture; type: functional; details: CCM 4516/08, 24 h
Description: Antibacterial activity against Staphylococcus aureus CCM 4516/08 after 24 hrs by microdilution broth method

[2] = system: Staphylococcus aureus; experiment: microbe, parasite or virus in culture; type: functional; details: CCM 4516/08, 48 h
Description: Antibacterial activity against Staphylococcus aureus CCM 4516/08 after 48 hrs by microdilution broth method

[3] = system: Staphylococcus aureus; experiment: Bactericidal activity against Staphylococcus aureus CCM 4516/08 after 48 hrs by microdilution broth method; type: functional; details: CCM 4516/08, 48 h, read-out: MBC>99.9
[4] = system: Staphylococcus aureus; experiment: microbe, parasite or virus in culture; type: functional; details: H 5996/08, 24 h
Description: Antibacterial activity against Staphylococcus aureus H 5996/08 after 24 hrs by microdilution broth method

[5] = system: Staphylococcus aureus; experiment: microbe, parasite or virus in culture; type: functional; details: H 5996/08, 48 h
Description: Antibacterial activity against Staphylococcus aureus H 5996/08 after 48 hrs by microdilution broth method

[6] = system: Staphylococcus aureus; experiment: Bactericidal activity against Staphylococcus aureus H 5996/08 after 48 hrs by microdilution broth method; type: functional; details: H 5996/08, 48 h, read-out: MBC>99.9
[7] = system: Staphylococcus epidermidis; experiment: microbe, parasite or virus in culture; type: functional; details: H 6966/08, 24 h
Description: Antibacterial activity against Staphylococcus epidermidis H 6966/08 after 24 hrs by microdilution broth method

[8] = system: Staphylococcus epidermidis; experiment: microbe, parasite or virus in culture; type: functional; details: H 6966/08, 48 h
Description: Antibacterial activity against Staphylococcus epidermidis H 6966/08 after 48 hrs by microdilution broth method

[9] = system: Staphylococcus epidermidis; experiment: Bactericidal activity against Staphylococcus epidermidis H 6966/08 after 48 hrs by microdilution broth method; type: functional; details: H 6966/08, 48 h, read-out: MBC>99.9
[10] = system: Enterococcus sp.; experiment: microbe, parasite or virus in culture; type: functional; details: J 14365/08, 24 h
Description: Antibacterial activity against Enterococcus sp. J 14365/08 after 24 hrs by microdilution broth method

[11] = system: Enterococcus sp.; experiment: microbe, parasite or virus in culture; type: functional; details: J 14365/08, 48 h
Description: Antibacterial activity against Enterococcus sp. J 14365/08 after 48 hrs by microdilution broth method

[12] = system: Enterococcus sp.; experiment: Bactericidal activity against Enterococcus sp. J 14365/08 after 48 hrs by microdilution broth method; type: functional; details: J 14365/08, 48 h, read-out: MBC>99.9
[13] = system: Escherichia coli; experiment: microbe, parasite or virus in culture; type: functional; details: CCM 4517, 24 h
Description: Antibacterial activity against Escherichia coli CCM 4517 after 24 hrs by microdilution broth method

[14] = system: Escherichia coli; experiment: microbe, parasite or virus in culture; type: functional; details: CCM 4517, 48 h
Description: Antibacterial activity against Escherichia coli CCM 4517 after 48 hrs by microdilution broth method

[15] = system: Escherichia coli; experiment: Bactericidal activity against Escherichia coli CCM 4517 after 48 hrs by microdilution broth method; type: functional; details: CCM 4517, 48 h, read-out: MBC>99.9
[16] = system: Klebsiella pneumoniae; experiment: microbe, parasite or virus in culture; type: functional; details: D 11750/08, 24 h
Description: Antibacterial activity against Klebsiella pneumoniae D 11750/08 after 24 hrs by microdilution broth method

[17] = system: Klebsiella pneumoniae; experiment: microbe, parasite or virus in culture; type: functional; details: D 11750/08, 48 h
Description: Antibacterial activity against Klebsiella pneumoniae D 11750/08 after 48 hrs by microdilution broth method

[18] = system: Klebsiella pneumoniae; experiment: Bactericidal activity against Klebsiella pneumoniae D 11750/08 after 24 hrs by microdilution broth method; type: functional; details: D 11750/08, 24 h, read-out: MBC>99.9
[19] = system: Klebsiella pneumoniae; experiment: microbe, parasite or virus in culture; type: functional; details: J 14368/08, 24 h
Description: Antibacterial activity against Klebsiella pneumoniae J 14368/08 after 24 hrs by microdilution broth method

[20] = system: Klebsiella pneumoniae; experiment: microbe, parasite or virus in culture; type: functional; details: J 14368/08, 48 h
Description: Antibacterial activity against Klebsiella pneumoniae J 14368/08 after 48 hrs by microdilution broth method

[21] = system: Klebsiella pneumoniae; experiment: Bactericidal activity against Klebsiella pneumoniae J 14368/08 after 48 hrs by microdilution broth method; type: functional; details: J 14368/08, 48 h, read-out: MBC>99.9
[22] = system: Pseudomonas aeruginosa; experiment: microbe, parasite or virus in culture; type: functional; details: CCM 1961, 72 h
Description: Antibacterial activity against Pseudomonas aeruginosa CCM 1961 after 72 hrs by microdilution broth method

[23] = system: Pseudomonas aeruginosa; experiment: microbe, parasite or virus in culture; type: functional; details: CCM 1961, 120 h
Description: Antibacterial activity against Pseudomonas aeruginosa CCM 1961 after 120 hrs by microdilution broth method

[24] = system: Pseudomonas aeruginosa; experiment: Bactericidal activity against Pseudomonas aeruginosa CCM 1961 after 120 hrs by microdilution broth method; type: functional; details: CCM 1961, 120 h, read-out: MBC>99.9
[25] = system: Candida albicans; experiment: microbe, parasite or virus in culture; type: functional; details: ATCC 44859, 24 h
Description: Antifungal activity against Candida albicans ATCC 44859 after 24 hrs by modified standard CSLI M27-A2 method

[26] = system: Candida albicans; experiment: microbe, parasite or virus in culture; type: functional; details: ATCC 44859, 48 h
Description: Antifungal activity against Candida albicans ATCC 44859 after 48 hrs by modified standard CSLI M27-A2 method

[27] = system: Candida albicans; experiment: Fungicidal activity against Candida albicans ATCC 44859 after 48 hrs by modified standard CSLI M27-A2 method; type: functional; details: ATCC 44859, 48 h
[28] = system: Candida tropicalis; experiment: microbe, parasite or virus in culture; type: functional; details: Candida tropicalis, 156, 24 h
Description: Antifungal activity against Candida tropicalis 156 after 24 hrs by modified standard CSLI M27-A2 method

[29] = system: Candida tropicalis; experiment: microbe, parasite or virus in culture; type: functional; details: Candida tropicalis, 156, 48 h
Description: Antifungal activity against Candida tropicalis 156 after 48 hrs by modified standard CSLI M27-A2 method

[30] = system: Candida tropicalis; experiment: Fungicidal activity against Candida tropicalis 156 after 48 hrs by modified standard CSLI M27-A2 method; type: functional; details: Candida tropicalis, 156, 48 h
[31] = system: Pichia kudriavzevii; experiment: Antifungal activity against Candida krusei E28 after 24 hrs by modified standard CSLI M27-A2 method; type: functional; details: E28, 24 h
[32] = system: Pichia kudriavzevii; experiment: Antifungal activity against Candida krusei E28 after 48 hrs by modified standard CSLI M27-A2 method; type: functional; details: E28, 48 h
[33] = system: Pichia kudriavzevii; experiment: Fungicidal activity against Candida krusei E28 after 48 hrs by modified standard CSLI M27-A2 method; type: functional; details: E28, 48 h
[34] = system: Nakaseomyces glabratus; experiment: Antifungal activity against Candida glabrata 20/I after 24 hrs by modified standard CSLI M27-A2 method; type: functional
[35] = system: Nakaseomyces glabratus; experiment: Antifungal activity against Candida glabrata 20/I after 48 hrs by modified standard CSLI M27-A2 method; type: functional
[36] = system: Nakaseomyces glabratus; experiment: Fungicidal activity against Candida glabrata 20/I after 48 hrs by modified standard CSLI M27-A2 method; type: functional
[37] = system: Trichosporon asahii; experiment: microbe, parasite or virus in culture; type: functional; details: Trichosporon asahii, 1188, 24 h
Description: Antifungal activity against Trichosporon asahii 1188 after 24 hrs by modified standard CSLI M27-A2 method

[38] = system: Trichosporon asahii; experiment: microbe, parasite or virus in culture; type: functional; details: Trichosporon asahii, 1188, 48 h
Description: Antifungal activity against Trichosporon asahii 1188 after 48 hrs by modified standard CSLI M27-A2 method

[39] = system: Trichosporon asahii; experiment: Fungicidal activity against Trichosporon asahii 1188 after 48 hrs by modified standard CSLI M27-A2 method; type: functional; details: Trichosporon asahii, 1188, 48 h
[40] = system: Aspergillus fumigatus; experiment: microbe, parasite or virus in culture; type: functional; details: Aspergillus fumigatus, 231, 24 h
Description: Antifungal activity against Aspergillus fumigatus 231 after 24 hrs by modified standard CSLI M27-A2 method

[41] = system: Aspergillus fumigatus; experiment: microbe, parasite or virus in culture; type: functional; details: Aspergillus fumigatus, 231, 48 h
Description: Antifungal activity against Aspergillus fumigatus 231 after 48 hrs by modified standard CSLI M27-A2 method

[42] = system: Aspergillus fumigatus; experiment: Fungicidal activity against Aspergillus fumigatus 231 after 48 hrs by modified standard CSLI M27-A2 method; type: functional; details: Aspergillus fumigatus, 231, 48 h
[43] = system: Lichtheimia corymbifera; experiment: microbe, parasite or virus in culture; type: functional; details: Lichtheimia corymbifera, 272, 24 h
Description: Antifungal activity against Absidia corymbifera 272 after 24 hrs by modified standard CSLI M27-A2 method

[44] = system: Lichtheimia corymbifera; experiment: microbe, parasite or virus in culture; type: functional; details: Lichtheimia corymbifera, 272, 48 h
Description: Antifungal activity against Absidia corymbifera 272 after 48 hrs by modified standard CSLI M27-A2 method

[45] = system: Lichtheimia corymbifera; experiment: Fungicidal activity against Absidia corymbifera 272 after 48 hrs by modified standard CSLI M27-A2 method; type: functional; details: Lichtheimia corymbifera, 272, 48 h
[46] = system: Trichophyton mentagrophytes; experiment: microbe, parasite or virus in culture; type: functional; details: Trichophyton mentagrophytes, 445, 72 h
Description: Antifungal activity against Trichophyton mentagrophytes 445 after 72 hrs by modified standard CSLI M27-A2 method

[47] = system: Trichophyton mentagrophytes; experiment: microbe, parasite or virus in culture; type: functional; details: Trichophyton mentagrophytes, 445, 120 h
Description: Antifungal activity against Trichophyton mentagrophytes 445 after 120 hrs by modified standard CSLI M27-A2 method

[48] = system: Trichophyton mentagrophytes; experiment: Fungicidal activity against Trichophyton mentagrophytes 445 after 120 hrs by modified standard CSLI M27-A2 method; type: functional; details: Trichophyton mentagrophytes, 445, 120 h
[49] = Cytotoxicity against CHOK1 cells after 24 hrs by MTT assay; type: ADME, cell-based; details: Cricetulus griseus, CHO-K1, 24 h

CCCCCCCCCCCCCC[N+](C)(C)Cc1ccccc1
24 µM: IC50 [49]
62.5 µM: MBC [24]
0.98 µM: MIC95 [1] | MIC95 [2] | MIC95 [7] | MIC95 [8] | MBC [9]
31.2 µM: MIC95 [23] | MIC [37] | MIC [38] | MIC [43] | MIC [44]
3.91 µM: MBC [3] | MBC [6] | MIC [28] | MIC [29] | MIC [31] | MIC [32]
7.81 µM: MBC [12] | MIC95 [13] | MIC95 [14] | MBC [15] | MIC95 [16] | MIC95 [17] | MBC [18] | MIC95 [19] | MIC95 [20] | MBC [21] | MIC [25] | MIC [26] | MIC [34] | MIC [35] | MIC [40]
1.95 µM: MIC95 [4] | MIC95 [5] | MIC95 [10] | MIC95 [11]
125 µM: MFC [27] | MFC [30] | MFC [33] | MFC [36] | MFC [39] | MFC [42] | MFC [45]
15.6 µM: MIC95 [22] | MIC [41] | MIC [46] | MIC [47] | MFC [48]

CCCCCCCCCCCC[N+](C)(C)Cc1ccccc1
7.81 µM: MBC [24] | MIC [43] | MIC [44] | MFC [45]
3.91 µM: MIC95 [22] | MIC95 [23] | MIC [41] | MFC [42]
0.98 µM: MBC [6] | MIC95 [11] | MBC [12] | MIC95 [19] | MIC95 [20] | MBC [21] | MFC [27] | MFC [30] | MIC [40] | MIC [46] | MIC [47]
29 µM: IC50 [49]
1.95 µM: MIC95 [2] | MBC [3] | MIC95 [14] | MBC [15] | MIC [38] | MFC [39] | MFC [48]
0.49 µM: MIC95 [1] | MIC95 [4] | MIC95 [5] | MIC95 [7] | MIC95 [8] | MBC [9] | MIC95 [10] | MIC95 [13] | MIC95 [16] | MIC95 [17] | MBC [18] | MIC [25] | MIC [26] | MIC [28] | MIC [29] | MIC [31] | MIC [32] | MFC [33] | MIC [34] | MIC [35] | MFC [36] | MIC [37]

CCCCCCCCCCCCCCCC[N+](C)(C)Cc1ccccc1
31.2 µM: MIC95 [23]
62.5 µM: MFC [36] | MFC [39] | MFC [42] | MFC [45] | MFC [48]
15.6 µM: MIC95 [22]
0.98 µM: MIC95 [1] | MIC95 [2]
15 µM: IC50 [49]
7.81 µM: MIC95 [13] | MIC95 [14] | MBC [15] | MIC95 [16] | MIC95 [17] | MBC [18] | MIC95 [19] | MIC95 [20] | MBC [21] | MIC [26] | MFC [27] | MIC [29] | MFC [30] | MIC [37] | MIC [38] | MIC [40] | MIC [41] | MIC [43] | MIC [44] | MIC [46] | MIC [47]
125 µM: MBC [24]
0.49 µM: MIC95 [7] | MIC95 [8]
3.91 µM: MBC [3] | MBC [6] | MBC [9] | MBC [12] | MIC [25] | MIC [28] | MIC [35]
1.95 µM: MIC95 [4] | MIC95 [5] | MIC95 [10] | MIC95 [11] | MIC [31] | MIC [32] | MFC [33] | MIC [34]
